From patent US20060264460A1 (Wyeth, priority 2005, published 2006)

Molecular target: T1, human Cot/Tpl2 kinase (Homo sapiens, UniProt P41279)
T1 construct: human Cot/Tpl2 kinase construct encoding residues 30-398; 6His (N); made in house; host or cells: Sf9 insect cells, baculovirus system (BD Biosciences)
Experiment: Tpl2/Cot kinase assay: GST-MEK1 phosphorylation detected by ELISA (DELFIA Eu)
Type: biochemical
Details: Tpl2/Cot kinase, GST-MEK1 substrate, 50 uM ATP
Procedure, shortened: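 Substrate phosphorylation (GST-MEK1 Ser217/221) quantified by DELFIA europium ELISA, yielding IC50 values. Reaction: 1 h at 30° C, pH 7.2 MOPS buffer, 50 uM ATP, 35 nM GST-MEK1, 0.4 nM monomeric His-Tpl2 purified from Sf9 cells, compounds at 1% final DMSO; stopped with EDTA.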

T1 sequence (P41279 30-398): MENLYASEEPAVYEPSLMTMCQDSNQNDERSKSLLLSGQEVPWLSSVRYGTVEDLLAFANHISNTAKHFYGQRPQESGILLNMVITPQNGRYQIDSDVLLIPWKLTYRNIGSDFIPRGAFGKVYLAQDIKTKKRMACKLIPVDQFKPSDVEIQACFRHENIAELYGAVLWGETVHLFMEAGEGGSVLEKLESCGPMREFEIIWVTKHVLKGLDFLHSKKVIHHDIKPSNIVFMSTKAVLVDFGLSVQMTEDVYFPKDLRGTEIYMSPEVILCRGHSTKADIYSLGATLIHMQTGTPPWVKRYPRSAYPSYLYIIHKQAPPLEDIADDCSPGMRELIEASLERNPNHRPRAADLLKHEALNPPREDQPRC

In order of falling IC50:
1. CCN1CCCCC1CNc1cc(Cl)c2ncc(C#N)c(Nc3ccc(F)c(Cl)c3)c2c1 (centres unmarked) [Example 870]  1970 nM
2. CCN1CCCC(Nc2cc(Cl)c3ncc(C#N)c(Nc4ccc(F)c(Cl)c4)c3c2)C1 (centres unmarked) [Example 868]  1190 nM
3. CN(C)CCNCC(=O)N1CCCC(CNc2cc(Cl)c3ncc(C#N)c(Nc4ccc(F)c(Cl)c4)c3c2)C1 (centres unmarked) [Example 920]  860 nM
4. CS(=O)(=O)NCCCn1cc(CN(C=O)c2cc(Cl)c3ncc(C#N)c(Nc4ccc(F)c(Cl)c4)c3c2)nn1 [Example 916]  830 nM
5. N#Cc1cnc2c(Cl)cc(NC3CCN(Cc4cccnc4)CC3)cc2c1Nc1ccc(F)c(Cl)c1 [Example 869]  820 nM
6. CC(=O)N1CCC(Nc2cc(Cl)c3ncc(C#N)c(Nc4ccc(F)c(Cl)c4)c3c2)CC1 [Example 873]  660 nM
7. CCOC(=O)C1CC1CNc1cc(Cl)c2ncc(C#N)c(Nc3ccc(F)c(Cl)c3)c2c1 (centres unmarked) [Example 884]  660 nM
8. N#Cc1cnc2c(Cl)cc(NCCNC(=O)c3cncnc3)cc2c1Nc1ccc(F)c(Cl)c1 [Example 864]  650 nM
9. CC(=O)N1CCCCC1CNc1cc(Cl)c2ncc(C#N)c(Nc3ccc(F)c(Cl)c3)c2c1 (centres unmarked) [Example 875]  620 nM
10. N#Cc1cnc2c(Cl)cc(NCC3CCCN(C(=O)CN4CCCCCC4)C3)cc2c1Nc1ccc(F)c(Cl)c1 (centres unmarked) [Example 903]  620 nM
11. CC(=O)N1CCCC(CNc2cc(Cl)c3ncc(C#N)c(Nc4ccc(F)c(Cl)c4)c3c2)C1 (centres unmarked) [Example 874]  610 nM
12. N#Cc1cnc2c(Cl)cc(NCC(=O)N3CCCCCC3)cc2c1Nc1ccc(F)c(Cl)c1 [Example 885]  390 nM
13. CC(=O)N1CCC(CN(C(C)=O)c2cc(Cl)c3ncc(C#N)c(Nc4ccc(F)c(Cl)c4)c3c2)CC1 [Example 865]  380 nM
14. N#Cc1cnc2c(Cl)cc(NCc3cn(Cc4cccc(C(F)(F)F)n4)nn3)cc2c1Nc1ccc(F)c(Cl)c1 [Example 882]  270 nM
15. CC(=O)N1CCC(CNc2cc(Cl)c3ncc(C#N)c(Nc4ccc(F)c(Cl)c4)c3c2)CC1 [Example 866]  260 nM
16. COCCNCC(=O)N1CCCC(CNc2cc(Cl)c3ncc(C#N)c(Nc4ccc(F)c(Cl)c4)c3c2)C1 (centres unmarked) [Example 904]  260 nM
17. N#Cc1cnc2c(Cl)cc(NCC3CC3C(=O)O)cc2c1Nc1ccc(F)c(Cl)c1 (centres unmarked) [Example 886]  220 nM
18. CC(C)(C)OC(=O)N1CCC[C@H]1Cn1cc(CNc2cc(Cl)c3ncc(C#N)c(Nc4ccc(F)c(Cl)c4)c3c2)nn1 [Example 888]  200 nM
19. N#Cc1cnc2c(Cl)cc(N(C=O)Cc3cn(CCCNC=O)nn3)cc2c1Nc1ccc(F)c(Cl)c1 [Example 915]  170 nM
20. CC(C)(C)OC(=O)N1CCC[C@@H]1Cn1cc(CNc2cc(Cl)c3ncc(C#N)c(Nc4ccc(F)c(Cl)c4)c3c2)nn1 [Example 887]  160 nM
21. CC(=O)N1CCC(Nc2cc(Cl)c3ncc(C#N)c(Nc4ccc(F)c(Cl)c4)c3c2)C1 (centres unmarked) [Example 871]  150 nM
22. CC(C)N1CCCC1Cn1cc(CNc2cc(Br)c3ncc(C#N)c(Nc4ccc(F)c(Cl)c4)c3c2)nn1 (centres unmarked) [Example 878]  110 nM
23. CN(C)C(=O)N1CCC[C@@H]1Cn1cc(CNc2cc(Cl)c3ncc(C#N)c(Nc4ccc(F)c(Cl)c4)c3c2)nn1 [Example 897]  110 nM
24. CC(=O)N1CCCC(Nc2cc(Cl)c3ncc(C#N)c(Nc4ccc(F)c(Cl)c4)c3c2)C1 (centres unmarked) [Example 872]  96 nM
25. N#Cc1cnc2c(Cl)cc(NCc3cn(Cc4ccnc(C(F)(F)F)c4)nn3)cc2c1Nc1ccc(F)c(Cl)c1 [Example 883]  80 nM
26. COCn1cc(CNc2cc(Br)c3ncc(C#N)c(Nc4ccc(F)c(Cl)c4)c3c2)nn1 [Example 917]  76 nM
27. N#Cc1cnc2c(Cl)cc(NCc3cn(CCCNC4CCCC4)nn3)cc2c1Nc1ccc(F)c(Cl)c1 [Example 914]  52 nM
28. CC(C)N1CCC[C@@H]1Cn1cc(CNc2cc(Cl)c3ncc(C#N)c(Nc4ccc(F)c(Cl)c4)c3c2)nn1 [Example 893]  46 nM
29. CC(C)CN(CCCn1cc(CNc2cc(Cl)c3ncc(C#N)c(Nc4ccc(F)c(Cl)c4)c3c2)nn1)CC(C)C [Example 913]  45 nM
30. CC(C)N1CCC[C@H]1Cn1cc(CNc2cc(Cl)c3ncc(C#N)c(Nc4ccc(F)c(Cl)c4)c3c2)nn1 [Example 896]  34 nM
31. CN1CCC[C@@H]1Cn1cc(CNc2cc(Cl)c3ncc(C#N)c(Nc4ccc(F)c(Cl)c4)c3c2)nn1 [Example 891]  33 nM
32. CCN1CCC[C@@H]1Cn1cc(CNc2cc(Cl)c3ncc(C#N)c(Nc4ccc(F)c(Cl)c4)c3c2)nn1 [Example 892]  30 nM
33. CCN1CCC[C@H]1Cn1cc(CNc2cc(Cl)c3ncc(C#N)c(Nc4ccc(F)c(Cl)c4)c3c2)nn1 [Example 895]  10 nM
34. N#Cc1cnc2c(Cl)cc(NCc3cn(C[C@H]4CCCN4)nn3)cc2c1Nc1ccc(F)c(Cl)c1 [Example 889]  8.4 nM
35. N#Cc1cnc2c(Cl)cc(NCc3cn(C[C@@H]4CCCN4)nn3)cc2c1Nc1ccc(F)c(Cl)c1 [Example 890]  7.6 nM
36. CC(C)S(=O)(=O)NCCCn1cc(CNc2cc(Cl)c3ncc(C#N)c(Nc4ccc(F)c(Cl)c4)c3c2)nn1 [Example 907]  4.5 nM
37. CS(=O)(=O)NCCCn1cc(CNc2cc(Cl)c3ncc(C#N)c(Nc4ccc(F)c(Cl)c4)c3c2)nn1 [Example 905]  2.8 nM
38. N#Cc1cnc2c(Br)cc(NCc3cn(Cc4cncnc4)nn3)cc2c1Nc1ccc(F)c(Cl)c1 [Example 880]  2.5 nM
39. CC(C)C(=O)NCCCn1cc(CNc2cc(Cl)c3ncc(C#N)c(Nc4ccc(F)c(Cl)c4)c3c2)nn1 [Example 911]  2.4 nM
40. N#Cc1cnc2c(Cl)cc(NCc3cn(CCCNC(=O)C4CC4)nn3)cc2c1Nc1ccc(F)c(Cl)c1 [Example 912]  1.9 nM
41. CN1CCC[C@H]1Cn1cc(CNc2cc(Cl)c3ncc(C#N)c(Nc4ccc(F)c(Cl)c4)c3c2)nn1 [Example 894]  1.8 nM
42. N#Cc1cnc2c(Cl)cc(NCc3cn(CC(=O)NC4CC4)nn3)cc2c1Nc1ccc(F)c(Cl)c1 [Example 876]  1.3 nM
43. N#Cc1cnc2c(Cl)cc(NCc3cn(CCCNS(=O)(=O)C(F)(F)F)nn3)cc2c1Nc1ccc(F)c(Cl)c1 [Example 906]  1.3 nM
44. N#Cc1cnc2c(Br)cc(NCc3cn(CCc4ccncc4)nn3)cc2c1Nc1ccc(F)c(Cl)c1 [Example 919]  1.3 nM
45. N#Cc1cnc2c(Cl)cc(NCc3cn(Cc4cncnc4)nn3)cc2c1Nc1ccc(F)c(Cl)c1 [Example 879]  1.1 nM
46. CC(=O)N1CCC[C@H]1Cn1cc(CNc2cc(Cl)c3ncc(C#N)c(Nc4ccc(F)c(Cl)c4)c3c2)nn1 [Example 901]  1 nM
47. CC(C)NC(=O)NCCCn1cc(CNc2cc(Cl)c3ncc(C#N)c(Nc4ccc(F)c(Cl)c4)c3c2)nn1 [Example 908]  1 nM
48. CNC(=O)NCCCn1cc(CNc2cc(Cl)c3ncc(C#N)c(Nc4ccc(F)c(Cl)c4)c3c2)nn1 [Example 909]  1 nM
49. N#Cc1cnc2c(Cl)cc(NCc3cn(CCc4ccncc4)nn3)cc2c1Nc1ccc(F)c(Cl)c1 [Example 918]  0.9 nM
50. CC(=O)NCCCn1cc(CNc2cc(Cl)c3ncc(C#N)c(Nc4ccc(F)c(Cl)c4)c3c2)nn1 [Example 910]  0.7 nM
51. CCNC(=O)N1CCC[C@@H]1Cn1cc(CNc2cc(Cl)c3ncc(C#N)c(Nc4ccc(F)c(Cl)c4)c3c2)nn1 [Example 899]  0.6 nM
52. CN(C)C(=O)N1CCC[C@H]1Cn1cc(CNc2cc(Cl)c3ncc(C#N)c(Nc4ccc(F)c(Cl)c4)c3c2)nn1 [Example 900]  0.5 nM
53. CCNC(=O)N1CCC[C@H]1Cn1cc(CNc2cc(Cl)c3ncc(C#N)c(Nc4ccc(F)c(Cl)c4)c3c2)nn1 [Example 902]  0.5 nM
54. CC(=O)N1CCC[C@@H]1Cn1cc(CNc2cc(Cl)c3ncc(C#N)c(Nc4ccc(F)c(Cl)c4)c3c2)nn1 [Example 898]  0.2 nM

Same assay, conditions: Tpl2/Cot kinase, GST-MEK1 substrate, 50 uM ATP, 1 h at 30° C.; Table 2

N#Cc1cnc2c(Cl)cc(NCC3CCCN(C(=O)CNCc4cccnc4)C3)cc2c1Nc1ccc(F)c(Cl)c1 (centres unmarked) [Example 921] and N#Cc1cnc2c(Cl)cc(NCC3CCCN(C(=O)CNc4cccnc4)C3)cc2c1Nc1ccc(F)c(Cl)c1 (centres unmarked) [Example 923] are within 1.5-fold of each other in IC50: 540 nM for the first, 560 nM for the second.

N#Cc1cnc2c(Cl)cc(NCC3CCCN(C(=O)CNCc4ccccn4)C3)cc2c1Nc1ccc(F)c(Cl)c1 (centres unmarked) [Example 922] and N#Cc1cnc2c(Cl)cc(NCC3CCCN(C(=O)CCl)C3)cc2c1Nc1ccc(F)c(Cl)c1 (centres unmarked) [Example 924] are within 1.5-fold of each other in IC50: 1690 nM for the first, 1320 nM for the second.

Going from CC(C)(C)OC(=O)N1CCC(n2cc(CNc3cc(Cl)c4ncc(C#N)c(Nc5ccc(F)c(Cl)c5)c4c3)nn2)CC1 [Example 925] to CC(=O)N1CCC(n2cc(CNc3cc(Cl)c4ncc(C#N)c(Nc5ccc(F)c(Cl)c5)c4c3)nn2)CC1 [Example 930], the IC50 falls from 73 nM to 3.3 nM (22-fold). The second is the more potent here.

Going from CN(C)C(=O)N1CCC(n2cc(CNc3cc(Cl)c4ncc(C#N)c(Nc5ccc(F)c(Cl)c5)c4c3)nn2)CC1 [Example 929] to CCNC(=O)N1CCC(n2cc(CNc3cc(Cl)c4ncc(C#N)c(Nc5ccc(F)c(Cl)c5)c4c3)nn2)CC1 [Example 931], the IC50 rises from 7 nM to 18.9 nM (2.7-fold). The first is the more potent here.

Going from N#Cc1cnc2c(Cl)cc(NC[C@H]3C[C@H](O)CO3)cc2c1Nc1ccc(F)c(Cl)c1 [Example 932] to N#Cc1cnc2c(Cl)cc(NC[C@H]3C[C@H](OCc4ccccc4)CO3)cc2c1Nc1ccc(F)c(Cl)c1 [Example 935], the IC50 rises from 410 nM to > 3000 nM.

First: C[C@H](CNc1ccccn1)Nc1cc(Cl)c2ncc(C#N)c(Nc3ccc(F)c(Cl)c3)c2c1 [Example 933]
Second: N#Cc1cnc2c(Cl)cc(NCc3cn(C4CCOC4=O)nn3)cc2c1Nc1ccc(F)c(Cl)c1 (centres unmarked) [Example 934]
The IC50 of the first is 110-fold higher: 1990 nM for the first, 18 nM for the second.

N#Cc1cnc2c(Cl)cc(NCc3cn(CCC4CCN(CC5CC5)CC4)nn3)cc2c1Nc1ccc(F)c(Cl)c1 [Example 936] and N#Cc1cnc2c(Cl)cc(NCc3cn(CCC4CCN(C5CCC5)CC4)nn3)cc2c1Nc1ccc(F)c(Cl)c1 [Example 937] are within 1.5-fold of each other in IC50: 130 nM for the first, 150 nM for the second.
